A word on the GI50: it is the concentration that inhibits growth by half. By TGI is commonly meant the concentration at which net growth stops. A higher TGI goes with lower sensitivity of the cells.

The results in this text go back to PubChem BioAssay (NCI).

Among the test systems are NCI-H23 lung; A498 renal; SF-539 CNS; 786-0 renal; OVCAR-5 ovarian; NCI-H226 lung; RPMI-8226 leukemia; UO-31 renal; SK-OV-3 ovarian; COLO 205 colon.
Experiment in all cases: DTP human tumour cell line panel, 48 h

Molecules are shown by their SMILES. Several values for one entry are separate records, joined by “and”; a condition that tells them apart may be missing. Identical values can stand only once.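 96-well plates; 48 h exposure; 5 concentrations. Endpoints by linear interpolation between flanking doses. Not reached: highest tested concentration assigned. Abbreviation: GI50, concentration required for 50% inhibition of growth. TGI marks complete inhibition of growth.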 A value given as a limit tells only on which side of the number the result lay.

Regarding `O=S(=O)(Nc1ccc(Br)cc1)c1ccc(-c2cnc(C3CC3)o2)cc1`, the GI50 with NCI-H23 lung was 2.99 µM; in the assay on A498 renal, 0.31 µM; in the assay on SF-539 CNS, 1.86 µM; in the assay with 786-0 renal, 5.34 µM; with OVCAR-5 ovarian, 4.55 µM; with NCI-H226 lung, 6.26 µM. Moreover, the GI50 in the assay on RPMI-8226 leukemia was 2.62 µM; in the assay with UO-31 renal, 2.41 µM; in the assay with SK-OV-3 ovarian it was 2.49 µM; in the assay with COLO 205 colon it was 2.53 µM. Also, the TGI in the assay with NCI-H23 lung was 15.1 µM; with A498 renal, 2.63 µM; in the assay on SF-539 CNS, 5.91 µM; with 786-0 renal, 20.1 µM; with OVCAR-5 ovarian, 17.1 µM; with NCI-H226 lung, 25 µM. Also, the total growth inhibition concentration (TGI) with RPMI-8226 leukemia was found to be 14.5 µM; in the assay on UO-31 renal, 15.7 µM; in the assay on SK-OV-3 ovarian it was 14.3 µM; with COLO 205 colon, 12.1 µM.
In the case of `COc1cc(Cl)cc(=O)c(O)c1OC`, the total growth inhibition concentration (TGI) with NCI-H23 lung was more than 100 µM; in the assay with A498 renal, more than 100 µM; with SF-539 CNS it was more than 100 µM; in the assay on 786-0 renal it was more than 100 µM; in the assay on OVCAR-5 ovarian, more than 100 µM; in the assay with NCI-H226 lung, more than 87.2 µM. Besides, the TGI was more than 100 µM with RPMI-8226 leukemia, more than 100 µM in the assay on UO-31 renal, more than 100 µM with SK-OV-3 ovarian and more than 81.2 µM in the assay with COLO 205 colon.
In the case of `O=c1ncccn1[C@@H]1O[C@H](CO)[C@H](O)C1O` (stereo not given in full), the TGI in the assay with NCI-H23 lung, with A498 renal, in the assay with SF-539 CNS, in the assay on 786-0 renal, in the assay with OVCAR-5 ovarian and in the assay on NCI-H226 lung was more than 100 µM throughout. Moreover, the TGI in the assay with RPMI-8226 leukemia, in the assay on UO-31 renal, in the assay with SK-OV-3 ovarian and in the assay on COLO 205 colon was more than 100 µM throughout.
Turning to `O=C(Nc1cccc(Cl)c1)Nn1cnnc1`, the GI50 in the assay on NCI-H23 lung, in the assay on A498 renal, in the assay with SF-539 CNS, in the assay with 786-0 renal, in the assay on OVCAR-5 ovarian and in the assay on NCI-H226 lung was more than 50 µM throughout. In addition, the GI50 with RPMI-8226 leukemia, in the assay on UO-31 renal, in the assay with SK-OV-3 ovarian and in the assay with COLO 205 colon was more than 50 µM throughout. Moreover, the TGI in the assay on NCI-H23 lung is more than 100 µM; in the assay with A498 renal, more than 100 µM; in the assay on SF-539 CNS, more than 100 µM; in the assay on 786-0 renal, more than 100 µM; in the assay with OVCAR-5 ovarian, > 50 µM and 22.5 µM; in the assay on NCI-H226 lung, more than 100 µM. Moreover, the TGI with RPMI-8226 leukemia, in the assay with UO-31 renal, in the assay on SK-OV-3 ovarian and with COLO 205 colon was more than 100 µM throughout.
Regarding `C1CSCCCSCCCSCCCSCCCSCCCSCCCSCCCSC1`, the TGI in the assay on NCI-H23 lung, in the assay with A498 renal, in the assay with SF-539 CNS, in the assay with 786-0 renal, in the assay with OVCAR-5 ovarian and in the assay with NCI-H226 lung was more than 100 µM in each case. The TGI in the assay on RPMI-8226 leukemia, with UO-31 renal, in the assay on SK-OV-3 ovarian and in the assay on COLO 205 colon was more than 100 µM in each case.
With `O=C(c1ccc2ccccc2c1)c1c(C(F)(F)F)n([O-])c2ccc(C(F)(F)F)cc2[n+]1=O`, the GI50 in the assay on NCI-H23 lung was 3.4 µM; in the assay with A498 renal, 0.757 µM; in the assay on SF-539 CNS, 1.56 µM; with 786-0 renal it was 1.29 µM; in the assay on OVCAR-5 ovarian, 0.992 µM; with NCI-H226 lung, 1.06 µM. In addition, the GI50 is 0.864 µM in the assay on RPMI-8226 leukemia, 0.434 µM in the assay on UO-31 renal, 1.79 µM in the assay on SK-OV-3 ovarian and 0.724 µM with COLO 205 colon. Also, the total growth inhibition concentration (TGI) in the assay with NCI-H23 lung turned out to be 10.2 µM; in the assay on A498 renal, 1.97 µM; in the assay with SF-539 CNS, 2.97 µM; with 786-0 renal, 2.68 µM; in the assay with OVCAR-5 ovarian it was 4.2 µM; in the assay with NCI-H226 lung, 3.35 µM. In addition, the TGI in the assay with RPMI-8226 leukemia was determined as 2.88 µM; with UO-31 renal, 0.874 µM; in the assay with SK-OV-3 ovarian, 3.2 µM; in the assay on COLO 205 colon, 1.83 µM.
For `CO/N=C(\COc1ccc2c(c1)[nH]c1ccccc12)c1ccc(OC)cc1`, the GI50 with NCI-H23 lung was 32.2 µM; with A498 renal it was 19.2 µM; in the assay on SF-539 CNS, 13.8 µM; in the assay with 786-0 renal it was 7.18 µM; in the assay with OVCAR-5 ovarian, 61 µM; in the assay with NCI-H226 lung, more than 100 µM. The GI50 is more than 100 µM in the assay with RPMI-8226 leukemia, more than 100 µM in the assay on UO-31 renal, 34.6 µM in the assay on SK-OV-3 ovarian and 92.3 µM in the assay with COLO 205 colon. The TGI in the assay on NCI-H23 lung was more than 100 µM; in the assay on A498 renal, 46 µM; with SF-539 CNS, more than 100 µM; in the assay with 786-0 renal it was more than 100 µM; with OVCAR-5 ovarian, more than 100 µM; in the assay with NCI-H226 lung it was more than 100 µM. Besides, the TGI in the assay with RPMI-8226 leukemia, in the assay on UO-31 renal, in the assay on SK-OV-3 ovarian and in the assay with COLO 205 colon was more than 100 µM throughout.
As for `O=C1/C(=C/c2ccc([N+](=O)[O-])cc2)CN(C(=O)CCN2CCC(=NO)CC2)C/C1=C\c1ccc([N+](=O)[O-])cc1`, the GI50 in the assay with NCI-H23 lung was 1.53 µM; with A498 renal it was 1.75 µM; in the assay with SF-539 CNS, 0.969 µM; in the assay on 786-0 renal, 1.06 µM; in the assay with OVCAR-5 ovarian, 1.57 µM; in the assay with NCI-H226 lung, 2.03 µM. Besides, the GI50 in the assay on RPMI-8226 leukemia is 0.368 µM; with UO-31 renal, 1.14 µM; in the assay with SK-OV-3 ovarian, 5.96 µM; in the assay on COLO 205 colon, 2.33 µM. Further, the TGI in the assay with NCI-H23 lung is 4.58 µM; in the assay on A498 renal, 3.95 µM; in the assay on SF-539 CNS it was 2.91 µM; in the assay on 786-0 renal, 3.66 µM; in the assay with OVCAR-5 ovarian it was 3.97 µM; in the assay with NCI-H226 lung it was 5.41 µM. The total growth inhibition concentration (TGI) in the assay with RPMI-8226 leukemia is 1.6 µM; in the assay on UO-31 renal, 2.55 µM; in the assay on SK-OV-3 ovarian it was 17.4 µM; in the assay on COLO 205 colon it was 5.93 µM.
With `C=C(c1ccccc1)C1(O)CCCCC1N` (stereo not given), the concentration for total growth inhibition (TGI) in the assay with NCI-H23 lung, with A498 renal, in the assay with SF-539 CNS, with 786-0 renal, in the assay with OVCAR-5 ovarian and in the assay on NCI-H226 lung was more than 100 µM throughout. In addition, the TGI in the assay on RPMI-8226 leukemia, in the assay with UO-31 renal, in the assay with SK-OV-3 ovarian and in the assay with COLO 205 colon was more than 100 µM throughout.
